The target in assay [1] is T1, Interleukin-1 receptor-associated kinase 4 (Homo sapiens) (UniProt Q9NWZ3).
T1 sequence (whole entry): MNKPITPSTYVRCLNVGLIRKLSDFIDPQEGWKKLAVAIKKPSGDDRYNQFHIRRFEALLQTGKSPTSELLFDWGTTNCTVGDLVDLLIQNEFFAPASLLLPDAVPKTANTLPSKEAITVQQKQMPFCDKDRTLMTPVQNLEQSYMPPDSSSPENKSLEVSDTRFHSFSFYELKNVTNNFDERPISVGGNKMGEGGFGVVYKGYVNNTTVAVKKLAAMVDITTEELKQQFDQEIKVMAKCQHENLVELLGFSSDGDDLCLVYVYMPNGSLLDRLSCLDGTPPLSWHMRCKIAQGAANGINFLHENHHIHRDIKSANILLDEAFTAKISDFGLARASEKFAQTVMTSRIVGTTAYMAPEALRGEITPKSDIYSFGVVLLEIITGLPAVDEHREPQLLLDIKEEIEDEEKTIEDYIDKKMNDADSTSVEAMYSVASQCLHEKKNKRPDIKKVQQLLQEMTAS
The assay is described as follows: Selectivity interaction (KinomeScan (DiscoverX)) EUB0001079a IRAK4. As to conditions: at 1 µM.

Assay [2] addresses Dual specificity protein kinase CLK1 (Homo sapiens, UniProt P49759). The assay is described as follows: Selectivity interaction (KinomeScan (DiscoverX)) EUB0000092b CLK1. As to conditions: at 10 µM.
Assay [3] concerns the target Myosin light chain kinase, smooth muscle (Homo sapiens, UniProt Q15746). Briefly: Selectivity interaction (KinomeScan (DiscoverX)) EUB0000092b MYLK. As to conditions: at 10 µM.
For assay [4], the target named is RAC-gamma serine/threonine-protein kinase (Homo sapiens, UniProt Q9Y243). Briefly: Selectivity interaction (KinomeScan (DiscoverX)) EUB0001049a AKT3. Conditions: at 1 µM.
The target in assay [5] is 3',5'-cyclic-AMP phosphodiesterase 4B (Homo sapiens) (UniProt Q07343). The assay is described as follows: Selectivity interaction (Panel of kinases, GPCRs, ion channels and transporters (enzymatic assay)) EUB0000223bCl PDE4B.
Chain of 3',5'-cyclic-AMP phosphodiesterase 4B (Homo sapiens) (Q07343 whole entry): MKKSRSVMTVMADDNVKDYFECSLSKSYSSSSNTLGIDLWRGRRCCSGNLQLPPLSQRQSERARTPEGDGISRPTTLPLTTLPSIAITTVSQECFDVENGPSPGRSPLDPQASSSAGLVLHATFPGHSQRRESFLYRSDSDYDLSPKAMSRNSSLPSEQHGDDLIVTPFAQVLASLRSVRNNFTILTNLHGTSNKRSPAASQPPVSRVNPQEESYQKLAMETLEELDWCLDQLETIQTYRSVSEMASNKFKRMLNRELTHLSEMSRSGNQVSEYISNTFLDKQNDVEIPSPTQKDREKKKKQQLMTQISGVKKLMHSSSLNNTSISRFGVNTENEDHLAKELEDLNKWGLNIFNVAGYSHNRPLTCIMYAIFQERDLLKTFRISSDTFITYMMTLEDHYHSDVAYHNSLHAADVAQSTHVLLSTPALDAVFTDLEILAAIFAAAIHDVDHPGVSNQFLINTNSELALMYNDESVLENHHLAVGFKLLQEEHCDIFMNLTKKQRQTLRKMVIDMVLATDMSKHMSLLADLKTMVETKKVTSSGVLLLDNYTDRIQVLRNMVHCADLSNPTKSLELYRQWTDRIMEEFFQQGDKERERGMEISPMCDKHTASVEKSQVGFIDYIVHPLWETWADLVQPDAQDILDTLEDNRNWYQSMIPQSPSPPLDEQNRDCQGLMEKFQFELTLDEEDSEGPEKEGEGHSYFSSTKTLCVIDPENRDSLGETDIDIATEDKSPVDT
Assay [6] addresses Histone-lysine N-methyltransferase, H3 lysine-36 specific (Homo sapiens) (UniProt Q96L73). Briefly: Selectivity interaction (Transferase panel (protein, RNA, and DNA methyltransferases. and EP300 (acetyltransferase))) EUB0000270b NSD1.
For assay [7], the target named is T2, Inhibitor of nuclear factor kappa-B kinase subunit alpha (Homo sapiens) (UniProt O15111).
T2 sequence (whole entry): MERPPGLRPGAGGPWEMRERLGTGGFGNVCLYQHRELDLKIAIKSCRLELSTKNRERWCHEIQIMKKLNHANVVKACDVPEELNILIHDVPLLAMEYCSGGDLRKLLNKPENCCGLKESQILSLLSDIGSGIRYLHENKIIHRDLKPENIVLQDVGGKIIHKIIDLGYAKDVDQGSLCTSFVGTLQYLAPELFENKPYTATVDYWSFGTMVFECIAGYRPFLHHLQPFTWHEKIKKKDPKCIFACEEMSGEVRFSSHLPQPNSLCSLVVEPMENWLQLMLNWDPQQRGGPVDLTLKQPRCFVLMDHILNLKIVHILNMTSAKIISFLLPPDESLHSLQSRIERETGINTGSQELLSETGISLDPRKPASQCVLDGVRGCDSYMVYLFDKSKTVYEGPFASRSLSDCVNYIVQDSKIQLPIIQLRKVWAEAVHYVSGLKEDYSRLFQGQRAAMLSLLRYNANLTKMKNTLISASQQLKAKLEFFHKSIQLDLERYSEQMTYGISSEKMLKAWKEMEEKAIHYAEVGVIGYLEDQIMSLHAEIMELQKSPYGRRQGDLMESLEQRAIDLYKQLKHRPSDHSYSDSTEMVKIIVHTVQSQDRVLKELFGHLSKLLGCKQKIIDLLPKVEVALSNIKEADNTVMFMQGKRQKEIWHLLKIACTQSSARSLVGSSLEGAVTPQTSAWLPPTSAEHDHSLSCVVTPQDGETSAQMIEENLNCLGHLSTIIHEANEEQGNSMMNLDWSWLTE
The assay is described as follows: Selectivity interaction (KinomeScan (DiscoverX)) EUB0000045b CHUK.

Assay [8] concerns the target Serine/threonine-protein kinase 38 (Homo sapiens) (UniProt Q15208). The assay is described as follows: Selectivity interaction (KinomeScan (DiscoverX)) EUB0000666a STK38. Conditions: at 10 µM.
Assay [9] deals with Protein kinase C eta type (Homo sapiens) (UniProt P24723). The assay is described as follows: Selectivity interaction (KinomeScan (DiscoverX)) EUB0000666a PRKCH. As to conditions: at 10 µM.
Assay [10] deals with Ephrin type-A receptor 2 (Homo sapiens) (UniProt P29317). The assay is described as follows: Selectivity interaction (SelectScreen profiling (Invitrogen)) EUB0000607a EPHA2. Conditions: at 2 µM.
Assay [11] has as its target Phosphatidylinositol 4,5-bisphosphate 3-kinase catalytic subunit beta isoform (Homo sapiens) (UniProt P42338). Briefly: Selectivity interaction (KinomeScan (DiscoverX)) EUB0000607a PIK3CB. As to conditions: at 10 µM.
Assay [12] has as its target Tyrosine-protein kinase ABL1 (Homo sapiens, UniProt P00519). Briefly: Selectivity interaction (ActivX KiNativ screen (kinase selectivity in THP-1 cell lysates)) EUB0000639a ABL1. The assay is classed as subcellular. Conditions: lysate, at 0.04 µM.
In assay [13] the target is Cyclin-dependent kinase 5 (Homo sapiens, UniProt Q00535). The assay is described as follows: Selectivity interaction (ActivX KiNativ screen (kinase selectivity in THP-1 cell lysates)) EUB0000639a CDK5. As to conditions: lysate, at 0.01 µM. The assay is classed as subcellular.
The target in assay [14] is T3, Serine/threonine-protein kinase 16 (Homo sapiens, UniProt O75716). The assay is described as follows: (§1) Selectivity interaction (ActivX KiNativ screen (kinase selectivity in THP-1 cell lysates)) EUB0000639a STK16. The assay is classed as subcellular. As to conditions: lysate.
T3 sequence (O75716 whole entry): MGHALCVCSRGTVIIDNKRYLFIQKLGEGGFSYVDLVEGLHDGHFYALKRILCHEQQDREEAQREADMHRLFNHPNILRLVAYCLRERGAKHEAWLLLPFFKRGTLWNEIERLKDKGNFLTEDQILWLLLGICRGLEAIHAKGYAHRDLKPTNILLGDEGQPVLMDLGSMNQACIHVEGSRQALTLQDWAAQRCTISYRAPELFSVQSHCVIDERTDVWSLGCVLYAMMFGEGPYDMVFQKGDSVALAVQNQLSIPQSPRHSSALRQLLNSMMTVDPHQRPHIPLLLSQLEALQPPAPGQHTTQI
The target of assay [15] is T3, Serine/threonine-protein kinase 16. Described as §1. Conditions: lysate, at 5 µM. The assay is classed as subcellular.
For assay [16], the target named is 5'-AMP-activated protein kinase catalytic subunit alpha-2 (Homo sapiens) (UniProt P54646). Briefly: Selectivity interaction (ActivX KiNativ screen (kinase selectivity in THP-1 cell lysates)) EUB0000639a PRKAA2. The class given is subcellular. Conditions: lysate, at 5 µM.
The target in assay [17] is Interferon-induced, double-stranded RNA-activated protein kinase (Homo sapiens) (UniProt P19525). The assay is described as follows: Selectivity interaction (KinomeScan (DiscoverX)) EUB0000229b EIF2AK2. Conditions: at 10 µM.
In assay [18] the target is Proto-oncogene tyrosine-protein kinase ROS (Homo sapiens) (UniProt P08922). Briefly: Selectivity interaction (KinomeScan (DiscoverX)) EUB0001619a ROS1. Conditions: at 1 µM.
Assay [19] deals with Serine/threonine-protein kinase 25 (Homo sapiens) (UniProt O00506). Briefly: Selectivity interaction (KinomeScan (DiscoverX)) EUB0001619a STK25. As to conditions: at 1 µM.
Assay [20] addresses Rho-associated protein kinase 2 (Homo sapiens, UniProt O75116). Briefly: Selectivity interaction (Enzymatic assay) EUB0001199aCl ROCK2.
Assay [21] addresses Serine/threonine-protein kinase MRCK beta (Homo sapiens) (UniProt Q9Y5S2). Briefly: Selectivity interaction (KinomeScan (DiscoverX)) EUB0000618a CDC42BPB. Conditions: at 10 µM.

Consider 13 molecules from ChEMBL document CHEMBL5465560, “Selectivity Literature for EUbOPEN Chemogenomic Library” (2024).

Chain of Histone-lysine N-methyltransferase, H3 lysine-36 specific (Homo sapiens) (Q96L73 whole entry): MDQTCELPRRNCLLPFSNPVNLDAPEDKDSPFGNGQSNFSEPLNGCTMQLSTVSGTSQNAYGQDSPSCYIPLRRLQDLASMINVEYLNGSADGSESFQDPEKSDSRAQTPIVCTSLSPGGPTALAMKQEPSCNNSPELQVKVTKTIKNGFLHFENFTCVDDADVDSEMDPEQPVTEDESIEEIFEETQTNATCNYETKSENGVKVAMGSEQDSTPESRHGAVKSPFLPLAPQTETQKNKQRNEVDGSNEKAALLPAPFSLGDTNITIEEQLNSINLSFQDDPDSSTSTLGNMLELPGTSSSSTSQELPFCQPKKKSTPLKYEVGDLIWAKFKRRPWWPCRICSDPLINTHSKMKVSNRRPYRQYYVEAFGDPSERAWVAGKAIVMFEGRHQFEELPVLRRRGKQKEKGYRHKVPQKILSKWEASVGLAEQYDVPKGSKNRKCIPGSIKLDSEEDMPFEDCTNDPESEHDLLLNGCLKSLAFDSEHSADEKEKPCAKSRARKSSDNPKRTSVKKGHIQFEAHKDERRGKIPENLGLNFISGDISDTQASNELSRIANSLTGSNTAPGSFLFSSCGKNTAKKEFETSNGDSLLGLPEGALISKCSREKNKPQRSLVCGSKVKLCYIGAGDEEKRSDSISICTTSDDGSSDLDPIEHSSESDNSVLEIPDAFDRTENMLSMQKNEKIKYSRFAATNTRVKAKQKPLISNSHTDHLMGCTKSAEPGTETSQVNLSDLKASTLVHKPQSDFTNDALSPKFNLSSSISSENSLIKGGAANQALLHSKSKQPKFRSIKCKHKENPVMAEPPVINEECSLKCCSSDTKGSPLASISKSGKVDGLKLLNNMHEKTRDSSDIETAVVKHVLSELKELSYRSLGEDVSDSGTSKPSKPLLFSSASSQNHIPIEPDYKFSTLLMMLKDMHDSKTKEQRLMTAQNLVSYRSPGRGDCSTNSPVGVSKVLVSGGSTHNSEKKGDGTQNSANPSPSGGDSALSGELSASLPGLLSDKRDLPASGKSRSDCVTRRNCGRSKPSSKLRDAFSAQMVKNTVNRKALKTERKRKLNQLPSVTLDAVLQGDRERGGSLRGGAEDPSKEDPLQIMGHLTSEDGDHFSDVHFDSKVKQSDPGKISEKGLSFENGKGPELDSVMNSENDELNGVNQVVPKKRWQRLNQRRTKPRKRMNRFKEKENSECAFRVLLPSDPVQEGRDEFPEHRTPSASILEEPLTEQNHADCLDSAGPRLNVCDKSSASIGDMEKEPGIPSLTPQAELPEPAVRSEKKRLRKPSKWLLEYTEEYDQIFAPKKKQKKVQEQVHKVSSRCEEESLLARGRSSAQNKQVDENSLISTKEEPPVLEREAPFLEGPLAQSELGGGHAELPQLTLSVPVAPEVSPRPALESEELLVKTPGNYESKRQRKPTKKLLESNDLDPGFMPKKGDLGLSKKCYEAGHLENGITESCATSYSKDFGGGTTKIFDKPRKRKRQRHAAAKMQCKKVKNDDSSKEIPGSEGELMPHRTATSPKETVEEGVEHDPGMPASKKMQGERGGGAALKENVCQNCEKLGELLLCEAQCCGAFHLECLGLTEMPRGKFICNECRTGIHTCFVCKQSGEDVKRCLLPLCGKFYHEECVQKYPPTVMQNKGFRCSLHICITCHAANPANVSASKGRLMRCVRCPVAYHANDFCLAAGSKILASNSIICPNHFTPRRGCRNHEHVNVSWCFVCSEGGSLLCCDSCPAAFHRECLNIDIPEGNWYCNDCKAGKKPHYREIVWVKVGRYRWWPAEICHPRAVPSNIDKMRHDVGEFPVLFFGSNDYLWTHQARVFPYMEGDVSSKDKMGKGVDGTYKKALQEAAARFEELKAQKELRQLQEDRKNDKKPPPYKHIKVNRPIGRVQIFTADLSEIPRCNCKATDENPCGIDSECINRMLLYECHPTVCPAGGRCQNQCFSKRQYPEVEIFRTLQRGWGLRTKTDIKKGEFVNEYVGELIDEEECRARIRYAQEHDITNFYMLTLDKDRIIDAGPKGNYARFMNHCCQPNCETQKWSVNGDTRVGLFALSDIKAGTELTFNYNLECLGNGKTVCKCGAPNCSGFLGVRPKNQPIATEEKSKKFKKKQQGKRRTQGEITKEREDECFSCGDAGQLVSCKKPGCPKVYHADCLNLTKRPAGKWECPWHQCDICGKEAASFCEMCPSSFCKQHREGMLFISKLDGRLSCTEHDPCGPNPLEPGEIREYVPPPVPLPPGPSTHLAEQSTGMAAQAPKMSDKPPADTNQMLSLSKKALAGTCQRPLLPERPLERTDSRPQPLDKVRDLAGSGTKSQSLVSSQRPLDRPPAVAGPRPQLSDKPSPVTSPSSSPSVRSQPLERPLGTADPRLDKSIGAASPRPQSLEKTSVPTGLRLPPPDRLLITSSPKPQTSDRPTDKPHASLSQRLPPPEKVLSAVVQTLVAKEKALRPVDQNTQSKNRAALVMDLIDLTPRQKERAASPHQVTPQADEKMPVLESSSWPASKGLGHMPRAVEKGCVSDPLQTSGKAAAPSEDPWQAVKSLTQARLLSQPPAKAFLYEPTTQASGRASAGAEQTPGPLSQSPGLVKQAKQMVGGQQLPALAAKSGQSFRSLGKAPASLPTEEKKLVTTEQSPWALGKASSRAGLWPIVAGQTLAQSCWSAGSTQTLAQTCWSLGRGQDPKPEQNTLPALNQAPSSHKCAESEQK
Chain of Tyrosine-protein kinase ABL1 (P00519 whole entry): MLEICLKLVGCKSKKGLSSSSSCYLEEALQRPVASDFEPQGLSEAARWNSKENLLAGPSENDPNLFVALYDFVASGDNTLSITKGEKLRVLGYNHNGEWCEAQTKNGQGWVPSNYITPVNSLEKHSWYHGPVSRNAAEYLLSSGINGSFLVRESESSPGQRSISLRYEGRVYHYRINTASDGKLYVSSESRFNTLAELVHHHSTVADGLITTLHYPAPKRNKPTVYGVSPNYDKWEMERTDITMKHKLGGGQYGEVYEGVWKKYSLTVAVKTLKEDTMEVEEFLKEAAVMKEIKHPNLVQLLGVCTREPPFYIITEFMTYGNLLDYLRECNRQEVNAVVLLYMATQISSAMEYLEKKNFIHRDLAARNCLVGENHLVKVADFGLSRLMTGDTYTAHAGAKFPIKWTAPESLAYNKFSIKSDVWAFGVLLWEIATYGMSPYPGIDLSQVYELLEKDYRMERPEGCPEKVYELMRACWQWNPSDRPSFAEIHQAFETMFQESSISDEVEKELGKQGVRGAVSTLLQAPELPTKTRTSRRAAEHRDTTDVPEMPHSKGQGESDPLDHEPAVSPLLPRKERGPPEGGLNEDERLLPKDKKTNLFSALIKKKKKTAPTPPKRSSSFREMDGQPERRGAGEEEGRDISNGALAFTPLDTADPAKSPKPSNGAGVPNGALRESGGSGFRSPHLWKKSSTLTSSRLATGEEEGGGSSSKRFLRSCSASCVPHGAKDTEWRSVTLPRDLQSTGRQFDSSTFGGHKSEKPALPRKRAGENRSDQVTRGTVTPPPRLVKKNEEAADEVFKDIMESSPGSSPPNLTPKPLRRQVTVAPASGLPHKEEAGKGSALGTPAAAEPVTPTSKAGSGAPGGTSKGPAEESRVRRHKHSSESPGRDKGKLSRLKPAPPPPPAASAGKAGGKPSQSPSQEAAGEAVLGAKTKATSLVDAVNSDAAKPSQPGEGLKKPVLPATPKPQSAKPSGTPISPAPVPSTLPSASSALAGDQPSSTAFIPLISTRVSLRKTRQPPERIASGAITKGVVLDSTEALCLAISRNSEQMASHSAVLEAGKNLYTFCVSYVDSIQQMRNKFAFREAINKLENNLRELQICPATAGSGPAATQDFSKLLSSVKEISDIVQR

Molecule `Nc1cnc(N2CCc3cc(S(=O)(=O)Nc4c(F)cc(Cl)cc4F)cc(N4CCCC4=O)c32)nc1` [TP-020n] showed a % of control in [1] of 100%.

As to `CCC(=O)N1CCN(c2ccc(-n3c(=O)ccc4cnc5ccc(-c6cnc7ccccc7c6)cc5c43)cc2C(F)(F)F)CC1`, the % of control amounted to 49% in assay [2] and 94% in assay [3].

Regarding `COc1cc(Nc2nc(C)cc(-c3cnn4nc(OC)ccc34)n2)cc(C(F)(F)F)c1`, in [4], the % of control is 96%.

Molecule `COc1cc(C(=O)N2CC[C@@H](O)[C@@H](N)C2)cc2nc(-c3cc4ccccc4n3CC3CC3)n(C)c12` displayed a pXC50 in assay [5] of 4.4 M.

Take `Cc1cc(CN)cc(C)c1-c1ncn(C)c1-c1cncn1C`: the % activity in [6] (at 1 µM) was above 90%; in assay [6] (at 10 µM) it was above 80%.

For the molecule `C=CC(=O)Nc1cc(-n2c(=O)ccc3cnc4ccc(-c5ccc(NS(C)(=O)=O)cc5)cc4c32)ccc1C`, the % of control in assay [7] (at 1 µM) and in assay [7] (at 10 µM) was 100% each time.

Take `O=C(NOC[C@H](O)CO)c1ccc(F)c(F)c1Nc1ccc(I)cc1F`: the % of control in assay [8] and in assay [9] was 100% in each case.

`CNC(=O)Nc1ccc(-c2nc(N3CC4CCC(C3)O4)c3cnn(C4CCC5(CC4)OCCO5)c3n2)cc1`: in assay [10], the % of inhibition came to 8%. Also, the % of control in [11] turned out to be 46%.

Regarding `CC[C@@H]1[C@H](F)C(=O)N[C@@H]1COc1nccc2cc(C(N)=O)c(OC)cc12` [ZIMLOVISERTIB], the % of inhibition is -16.4% in assay [12]; -4.7% in assay [13]; 10.7% in assay [14] (at 0.01 µM); 27.8% in assay [14] (at 0.04 µM); 22.2% in assay [14] (at 0.2 µM); 67.2% in assay [14] (at 1 µM). Also, the % of inhibition was above 94% in assay [14] (at 5 µM), 81.9% in assay [15] and 18.6% in assay [16].

In [17], `COc1cc(N(C)c2ccnc3ccc(C(F)(F)F)cc23)cc(OC)c1OC` yielded a % binding of 58%.

Take `N#Cc1cccc(-c2c[nH]c3ncnc(N4CCOCC4)c23)c1`: the % of control in assay [18] was 90%; in assay [19], 28%.

Consider `CN1Cc2nccc(-c3cn(C)nc3-c3ccc(F)cc3)c2C1=O`, for which, in assay [20], the IC50 – broadly, the midpoint of a concentration-inhibition curve – turned out to be 10.2 µM.

`O[C@H]1CC[C@H](Nc2ncc3nc(Nc4c(F)cc(F)cc4F)n([C@H]4CCOC4)c3n2)CC1` registered a % of control in [21] of 100%.
